Some results are limits rather than exact numbers.

Series [1] has as its system Echovirus type 11 (ECHO 11). Nature of the series: Anti-echoviral cell culture assay (XTT, EC50), ECHO 11. Conditions: Enterovirus B. The format is cell-based, echovirus 11 in MRC-5 cells. As for the experimental part: Anti-Echoviral and Anti-Enteroviral Cell Culture Assays
(§1) Echovirus type 11 (ECHO 11) was purchased from ATCC (Rockville, Md.). Virus stocks were propagated and antiviral assays were performed in MRC-5 cells (ATCC). Cells were grown in minimal essential medium with 10% fetal bovine serum (Life Technologies, Gaithersburg, Md.). The ability of the compounds of this invention to protect cells against ECHO 11 infection was measured by the XTT dye reduction method (Weislow et al., J. Natl. Cancer Inst. (1989), vol. 81, 577-586). MRC-5 cells were infected with ECHO 11 at an m.o.i. of 0.003 or 0.004, respectively, or mock-infected with medium only. Infected or uninfected cells were added at 1×10^4 cells per well and incubated with appropriate concentrations of compound. Four days later, XTT/PMS was added to test plates, and the amount of formazan produced was quantified spectrophotometrically at 450/650 nm. […] The therapeutic index (TI) was calculated by dividing the CC50 by the EC50. Activity of the compounds against enterovirus type 70 (EV 70) may be measured by the same assay as described above in this section. Enterovirus type 70 (EV 70) may be obtained from the American Type Culture Collection ATCC (Rockville, Md.).
A general note: Tetrazolium dyes change colour on reduction, which living cells bring about.

The test system of another series is MRC-5 cells. Nature of the series: Cytotoxicity (CC50) in uninfected MRC-5 cells, XTT dye reduction. The format is cell-based, human. As for the experimental part:
as §1

The subject of another series is echovirus 6 (ECHO-6). Nature of the series: Anti-echoviral cell culture assay (EC50), ECHO-6. The format is cell-based. Conditions: Enterovirus B.
The test system of another series is coxsackievirus B5 (CVB5). As to the kind of experiment: Antiviral cell culture assay (EC50), coxsackievirus B5. Conditions: Enterovirus B. The format is cell-based.
In the next series the test system is coxsackievirus B2 (CVB2). Nature of the series: Antiviral cell culture assay (EC50), coxsackievirus B2. The series is classed as cell-based. Particulars: Enterovirus B.
A further series deals with echovirus 9 (ECHO-9). Nature of the series: Antiviral cell culture assay (EC50), echovirus 9. Particulars: Enterovirus B; ECHO9. The series is classed as cell-based.
Series [2] is described as follows: Cytotoxicity (CC50), cell line not stated. The format is cell-based.

As for `CCOC(=O)/C=C/[C@H](C[C@@H]1CCNC1=O)NC(=O)[C@H](CC)n1cccc(NC(=O)c2cc(C)on2)c1=O` [Compound 26, trans-(2′S,3″″S,4S)-4-(2′-{3″-[(5′″-Methylisoxazole-3′″-carbonyl)amino]-2″-oxo-2″H-pyridin-1″-yl}butyrylamino)-5-(2″″-oxopyrrolidin-3″″-yl)pent-2-enoic Acid Ethyl Ester], the results for the EC50 (in series [1]; in the series on echovirus 6 (ECHO-6)) were 0.036 µM and 0.017 µM, respectively. The CC50 in the series with MRC-5 cells (line of ECHO-6) and with MRC-5 cells (line of ECHO-9) was > 10 µM each time.

`C#CC[C@@H](C(=O)N[C@H](/C=C/C(=O)OCC)C[C@@H]1CCNC1=O)n1cccc(NC(=O)c2cc(C)on2)c1=O` [Compound 31, trans-(2′S,3″″S,4S)-4-(2′-{3″-[(5′″-Methyl-isoxazole-3′″-carbonyl)amino]-2″-oxo-2″H-pyridin-1″-yl}pent-4′-ynoyl-amino)-5-(2″″-oxopyrrolidin-3″″-yl)pent-2-enoic Acid Ethyl Ester]: the results for the EC50 (in series [1]; in the series on echovirus 6 (ECHO-6)) were 0.013 µM and 0.021 µM, respectively. For the same compound, the CC50 in the series with MRC-5 cells (line of ECHO-9) and in the series on MRC-5 cells (line of ECHO-11) was > 10 µM throughout.

`CCOC(=O)/C=C/[C@H](C[C@@H]1CCNC1=O)NC(=O)[C@H](Cc1ccc(F)c(F)c1)n1cccc(NC(=O)c2cc(C)on2)c1=O` [Compound 33, trans-(2′S,3′″″S,4S)-4-(3′-(3″,4″-Difluorophenyl)-2′-{3′″-[(5″″-methylisoxazole-3″″-carbonyl)amino]-2′″-oxo-2′″H-pyridin-1′″-yl}propionylamino)-5-(2′″″-oxopyrrolidin-3′″″-yl)pent-2-enoic Acid Ethyl Ester]: the EC50 was found to be 0.016 µM in series [1] and 0.015 µM with echovirus 6 (ECHO-6). Moreover, the CC50 in the series with MRC-5 cells (line of ECHO-6) and with MRC-5 cells (line of ECHO-9) was > 10 µM in each case.

For `C#CC[C@@H](C(=O)N[C@H](/C=C/C(=O)OC(C)(C)C)C[C@@H]1CCNC1=O)n1cccc(NC(=O)c2cc(C)on2)c1=O` [Compound 41, trans-(2′S,3′″″S,4S)-4-[2′-(3″-{[1′″-(5″″-Methylisoxazol-3″″-yl)methanoyl]amino}-2′″-oxo-2′″H-pyridin-1′″-yl)pent-4″-ynoylamino]-5-(2′″″-oxopyrrolidin-3′″″-yl)pent-2-enoic Acid tert-Butyl Ester], the melting point is 195 °C (dec.). In addition, the midpoint of the response in series [1], the EC50, lay at 0.186 µM. The CC50 in the series on MRC-5 cells (line of ECHO-6) is > 10 µM. Further, the CC50 with MRC-5 cells (line of ECHO-9) is > 10 µM. The EC50 in the series with echovirus 6 (ECHO-6) was 0.147 µM.

For the compound `CC[C@@H](C(=O)N[C@H](/C=C/C(=O)OCc1ccccc1)C[C@@H]1CCNC1=O)n1cccc(NC(=O)c2cc(C)on2)c1=O` [Compound 62, trans-(2′S,3′″″S,4S)-4-[2′-(3″-{[1′″-(5″″-Methylisoxazol-3″″-yl)methanoyl]amino}-2′″oxo-2′″H-pyridin-1′″-yl)butanoylamino]-5-(2′″″-oxopyrrolidin-3′″″-yl)pent-2-enoic Acid Benzyl Ester], the EC50 stood at 0.02 µM with coxsackievirus B5 (CVB5), 0.016 µM in the series with coxsackievirus B2 (CVB2) and 0.004 µM in the series with echovirus 9 (ECHO-9). For the same compound, the CC50 in series [2] (CVB2), in series [2] (CVB5) and in series [2] (ECHO9) was > 10 µM throughout.

Regarding `C#CC[C@@H](C(=O)N[C@H](/C=C/C(=O)OCc1ccccc1)C[C@@H]1CCNC1=O)n1cccc(NC(=O)c2cc(C)on2)c1=O` [Compound 63, trans-(2′S,3′″″S,4S)-4-[2′-(3″-{[1′″-(5″″-Methylisoxazol-3″″-yl)methanoyl]amino}-2′″-oxo-2′″H-pyridin-1′″-yl)pent-4″-ynoylamino]-5-(2′″″-oxopyrrolidin-3′″″-yl)pent-2-enoic Acid Benzyl Ester], the figures for the EC50 in the series on coxsackievirus B5 (CVB5), with coxsackievirus B2 (CVB2) and with echovirus 9 (ECHO-9) were 0.01 µM, 0.012 µM and 0.002 µM, respectively. For the same compound, the CC50 in series [2] (CVB2), in series [2] (CVB5) and in series [2] (ECHO9) was > 10 µM each time.

The EC50 is the concentration that produces a half-maximal response. Read a high EC50 as a less potent agent. What is called CC50 is the concentration giving 50% cytotoxicity. As a reminder, the melting point is the temperature, or range, at which the solid turns liquid.

The values above are taken from patent US6514997B2, “Antipicornaviral compounds and compositions, their pharmaceutical uses, and materials for their synthesis” (Agouron Pharmaceuticals, Inc., priority 1999, dated 2003).
